Among the data in patent US12583866B2, “Pyrido[2,3-b][1,4]oxazines or tetrahydropyrido[2,3-b][1,4]oxazepines as IAP antagonists” (BEIGENE, LTD., priority 2020, dated 2026) are IC50 values, retold here.

Assay [1] deals with T1, recombinant human cIAP2-BIR3 protein (Homo sapiens, UniProt Q13489).
T1 construct: recombinant human cIAP2-BIR3 protein; purchased Reaction biology APT-11-372
Description: Recombinant human c-IAP2-BIR3 biochemical assay (HTRF, peptide displacement). The conditions noted are these: 3.7 nM cIAP2-BIR3, 3.7 nM AbuRPF-K(5-Fam)-NH2 peptide, read-out: Protein binding IC50 (nM) c-IAP2. The gist of the method:
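3.7 nM protein pre-incubated 1 h at room temperature with compounds (top 10 uM, 4-fold, 10 points) in 20 mM HEPES pH 7.5, 50 mM NaCl, 0.005% Tween-20, 1 mM DTT. Then 3.7 nM AbuRPF-K(5-Fam)-NH2 for 1 h, then anti-6His Tb cryptate 1 h. IC50 from 520/490 nm HTRF ratio, four-parameter logistic fit.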
A general note: Time-resolved FRET reads energy transfer from a long-lived donor to a nearby acceptor.

Assay [2] addresses T2, recombinant human XIAP-BIR3 protein (Homo sapiens, UniProt P98170).
T2 construct: recombinant human XIAP-BIR3 protein; purchased Reaction biology APT-11-374
Kind of assay: Recombinant human XIAP-BIR3 biochemical assay (HTRF, peptide displacement). Conditions: 3.7 nM XIAP-BIR3, 7.6 nM AbuRPF-K(5-Fam)-NH2 peptide, read-out: Protein binding IC50 (nM) XIAP. The essentials: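 3.7 nM His-tagged XIAP-BIR3 was preincubated 1 h RT with compound (top 10 µM, 4-fold, 10 points) in 20 mM HEPES pH 7.5, 50 mM NaCl, 0.005% Tween-20, 1 mM DTT. 7.6 nM AbuRPF-K(5-Fam)-NH2 peptide was then added, followed by anti-6His Tb cryptate, 1 h each. HTRF 520/490 nm ratio; four-parameter logistic IC50.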

The target of assay [3] is T3, recombinant human cIAP1-BIR3 protein (Homo sapiens, UniProt Q13490).
T3 construct: recombinant human cIAP1-BIR3 protein; purchased Reaction biology APT-11-370
T3 sequence (Q13490 253-363 limits assumed): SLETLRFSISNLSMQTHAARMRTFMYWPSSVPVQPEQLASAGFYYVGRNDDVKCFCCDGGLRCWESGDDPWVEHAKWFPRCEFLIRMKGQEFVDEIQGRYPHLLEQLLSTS
Kind of assay: Recombinant human c-IAP1-BIR3 biochemical assay (HTRF, peptide displacement). Conditions: 1.2 nM cIAP1-BIR3, 3 nM AbuRPF-K(5-Fam)-NH2 peptide, read-out: Protein binding IC50 (nM) c-IAP1. The gist of the method:
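1.2 nM cIAP1-BIR3 preincubated 1 h at room temperature with compound (10 points, 4-fold, top 10 uM) in 20 mM HEPES pH 7.5, 50 mM NaCl, 1 mM DTT; 3 nM AbuRPF-K(5-Fam)-NH2 then added for 1 h, then anti-6His Tb cryptate for 1 h. 520/490 nm ratio; IC50 by four-parameter logistic fit.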

T1 sequence (Q13489 238-349 limits assumed): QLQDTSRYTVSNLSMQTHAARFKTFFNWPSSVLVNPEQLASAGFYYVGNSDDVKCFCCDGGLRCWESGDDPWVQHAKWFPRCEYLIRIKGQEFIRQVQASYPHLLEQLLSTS
T2 sequence (P98170 241-356 limits assumed): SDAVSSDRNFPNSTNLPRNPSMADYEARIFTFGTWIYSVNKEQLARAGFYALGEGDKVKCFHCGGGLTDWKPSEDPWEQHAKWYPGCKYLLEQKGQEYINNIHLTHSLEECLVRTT

On to `COCCNC(=O)c1nc2c(cc1Cc1ccc(F)cc1)N(C(=O)CN1C[C@@H](C)NC[C@@H]1CN1[C@H](C)COC[C@H]1C)[C@@H](C)CO2` [Example 66, (S)-1-(2-((2R,5R)-2-(((3R,5R)-3,5-dimethylmorpholino)methyl)-5-methylpiperazin-1-yl)acetyl)-7-(4-fluorobenzyl)-N-(2-methoxyethyl)-2-methyl-2,3-dihydro-1H-pyrido[2,3-b][1,4]oxazine-6-carboxamide], for which the half-inhibitory concentration (IC50) – broadly, the midpoint of a concentration-inhibition curve – came to 0.52 nM in assay [1], 5.9 nM in assay [2] and 0.25 nM in assay [3].
`COCCOCCNC(=O)c1nc2c(cc1Cc1ccc(F)cc1)N(C(=O)CN1C[C@@H](C)NC[C@@H]1CN1[C@H](C)COC[C@H]1C)[C@@H](C)CO2` [Example 67, (S)-1-(2-((2R,5R)-2-(((3R,5R)-3,5-dimethylmorpholino)methyl)-5-methylpiperazin-1-yl)acetyl)-7-(4-fluorobenzyl)-N-(2-(2-methoxyethoxy)ethyl)-2-methyl-2,3-dihydro-1H-pyrido[2,3-b][1,4]oxazine-6-carboxamide]: the IC50 was found to be 0.56 nM in assay [1], 8.2 nM in assay [2] and 0.29 nM in assay [3].
Taken in the same sequence, the figures for `CNC(=O)c1nc2c(cc1Cc1ccc(F)cc1)N(C(=O)CN1C[C@@H](C)NC[C@@H]1CN1[C@H](C)COC[C@H]1C)[C@@H](C)CO2` [Example 68, (S)-1-(2-((2R,5R)-2-(((3R,5R)-3,5-dimethylmorpholino)methyl)-5-methylpiperazin-1-yl)acetyl)-7-(4-fluorobenzyl)-N,2-dimethyl-2,3-dihydro-1H-pyrido[2,3-b][1,4]oxazine-6-carboxamide] were 0.41 nM, 5.5 nM and 0.23 nM.
Taken in the same sequence, the figures for `CC(C)NC(=O)c1nc2c(cc1Cc1ccc(F)cc1)N(C(=O)CN1C[C@@H](C)NC[C@@H]1CN1[C@H](C)COC[C@H]1C)[C@@H](C)CO2` [Example 69, (S)-1-(2-((2R,5R)-2-(((3R,5R)-3,5-dimethylmorpholino)methyl)-5-methylpiperazin-1-yl)acetyl)-7-(4-fluorobenzyl)-N-isopropyl-2-methyl-2,3-dihydro-1H-pyrido[2,3-b][1,4]oxazine-6-carboxamide] were 0.37 nM, 3.7 nM and 0.16 nM.
Turning to `C[C@@H]1CN(CC(=O)N2c3cc(Cc4ccc(F)cc4)c(C(=O)NCC4CC4)nc3OC[C@@H]2C)[C@@H](CN2[C@H](C)COC[C@H]2C)CN1` [Example 70, (S)—N-(cyclopropylmethyl)-1-(2-((2R,5R)-2-(((3R,5R)-3,5-dimethylmorpholino)methyl)-5-methylpiperazin-1-yl)acetyl)-7-(4-fluorobenzyl)-2-methyl-2,3-dihydro-1H-pyrido[2,3-b][1,4]oxazine-6-carboxamide], the concentration for half-maximal inhibition (IC50) is 0.27 nM in assay [1], 1.9 nM in assay [2] and 0.16 nM in assay [3].
Take `C[C@@H]1CN(CC(=O)N2c3cc(Cc4ccc(F)cc4)c(C(=O)Nc4ccc(F)cc4)nc3OC[C@@H]2C)[C@@H](CN2[C@H](C)COC[C@H]2C)CN1` [Example 71, (S)-1-(2-((2R,5R)-2-(((3R,5R)-3,5-dimethylmorpholino)methyl)-5-methylpiperazin-1-yl)acetyl)-7-(4-fluorobenzyl)-N-(4-fluorophenyl)-2-methyl-2,3-dihydro-1H-pyrido[2,3-b][1,4]oxazine-6-carboxamide]: the IC50 in assay [1] is 0.57 nM; in assay [2] it was 7.9 nM; in assay [3], 0.26 nM.
On to `C[C@@H]1CN(CC(=O)N2c3cc(Cc4ccc(F)cc4)c(C(=O)N4CCOCC4)nc3OC[C@@H]2C)[C@@H](CN2[C@H](C)COC[C@H]2C)CN1` [Example 72, 2-((2R,5R)-2-(((3R,5R)-3,5-dimethylmorpholino)methyl)-5-methylpiperazin-1-yl)-1-((S)-7-(4-fluorobenzyl)-2-methyl-6-(morpholine-4-carbonyl)-2,3-dihydro-1H-pyrido[2,3-b][1,4]oxazin-1-yl)ethan-1-one], for which the IC50 in assay [1] came to 0.42 nM; in assay [2] it was 7.6 nM; in assay [3] it was 0.35 nM.
Turning to `C[C@@H]1CN(CC(=O)N2c3cc(Cc4ccc(F)cc4)c(C(=O)NCCO)nc3OC[C@@H]2C)[C@@H](CN2[C@H](C)COC[C@H]2C)CN1` [Example 73, (S)-1-(2-((2R,5R)-2-(((3R,5R)-3,5-dimethylmorpholino)methyl)-5-methylpiperazin-1-yl)acetyl)-7-(4-fluorobenzyl)-N-(2-hydroxyethyl)-2-methyl-2,3-dihydro-1H-pyrido[2,3-b][1,4]oxazine-6-carboxamide], the concentration for half-maximal inhibition (IC50) in assay [1] worked out at 0.29 nM; in assay [2], 4.3 nM; in assay [3] it was 0.18 nM.
Taken in the same sequence, the figures for `C[C@@H]1CN(CC(=O)N2c3cc(Cc4ccc(F)cc4)c(C(=O)N4CC(O)C4)nc3OC[C@@H]2C)[C@@H](CN2[C@H](C)COC[C@H]2C)CN1` [Example 74, 2-((2R,5R)-2-(((3R,5R)-3,5-dimethylmorpholino)methyl)-5-methylpiperazin-1-yl)-1-((S)-7-(4-fluorobenzyl)-6-(3-hydroxyazetidine-1-carbonyl)-2-methyl-2,3-dihydro-1H-pyrido[2,3-b][1,4]oxazin-1-yl)ethan-1-one] were 0.51 nM, 11 nM and 0.25 nM.
Taken in the same sequence, the figures for `C[C@@H]1CN(CC(=O)N2c3cc(Cc4ccc(F)cc4)c(C(=O)NCCN4CCOCC4)nc3OC[C@@H]2C)C(CN2[C@H](C)COC[C@H]2C)CN1` (stereo partly drawn) [Example 75, (5)-1-(2-((2R,5R)-2-(((3R,5R)-3,5-dimethylmorpholino)methyl)-5-methylpiperazin-1-yl)acetyl)-7-(4-fluorobenzyl)-2-methyl-N-(2-morpholinoethyl)-2,3-dihydro-1H-pyrido[2,3-b][1,4]oxazine-6-carboxamide] were 0.54 nM, 6.5 nM and 0.2 nM.
As for `C[C@@H]1CN(CC(=O)N2c3cc(Cc4ccc(F)cc4)c(C(=O)NC4CCOCC4)nc3OC[C@@H]2C)[C@@H](CN2[C@H](C)COC[C@H]2C)CN1` [Example 76, (S)-1-(2-((2R,5R)-2-(((3R,5R)-3,5-dimethylmorpholino)methyl)-5-methylpiperazin-1-yl)acetyl)-7-(4-fluorobenzyl)-2-methyl-N-(tetrahydro-2H-pyran-4-yl)-2,3-dihydro-1H-pyrido[2,3-b][1,4]oxazine-6-carboxamide], the IC50 amounted to 0.28 nM in assay [1], 4.4 nM in assay [2] and 0.15 nM in assay [3].
As for `C[C@@H]1CN(CC(=O)N2c3cc(Cc4ccc(F)cc4)c(C(=O)NCC4CCOCC4)nc3OC[C@@H]2C)[C@@H](CN2[C@H](C)COC[C@H]2C)CN1` [Example 77, (S)-1-(2-((2R,5R)-2-(((3R,5R)-3,5-dimethylmorpholino)methyl)-5-methylpiperazin-1-yl)acetyl)-7-(4-fluorobenzyl)-2-methyl-N-((tetrahydro-2H-pyran-4-yl)methyl)-2,3-dihydro-1H-pyrido[2,3-b][1,4]oxazine-6-carboxamide], the figures for the half-inhibitory concentration (IC50) in assay [1], in assay [2] and in assay [3] were 0.28 nM, 2.6 nM and 0.2 nM, respectively.
